Among the data in ChEMBL document CHEMBL4831506, “Discovery of novel trimethoxyphenylbenzo[d]oxazoles as dual tubulin/PDE4 inhibitors capable of inducing apoptosis at G2/M phase arrest in glioma and lung cancer cells” (Eur J Med Chem, 2021) are IC50, inhibition and Activity values, retold here.

For assay [1], the system named is U-251. The assay is described as follows: Antiproliferative activity against human U-251 cells after 48 hrs by MTT assay. In kind it is functional, cell-based. The settings on record: U-251, 48 h.
For a further assay, the species on record is Sus scrofa. The assay is described as follows: Inhibition of pig brain tubulin polymerization at 10 uM by spectrometric method relative to control. Format: tissue-based.
The test system of the next assay is NCI-H460. Put plainly: Antiproliferative activity against human NCI-H460 cells after 48 hrs by MTT assay. In kind it is functional, cell-based. As to conditions: NCI-H460, 48 h.
A further assay has as its system MCF7. Put plainly: Antiproliferative activity against human MCF7 cells after 48 hrs by MTT assay. In kind it is functional, cell-based. As to conditions: MCF7, 48 h.
A short description of assay [2]: Inhibition of pig brain tubulin polymerization at 1 uM by spectrometric method relative to control. In kind it is tissue-based, Sus scrofa.
For assay [3], the system named is A549. Put plainly: Antiproliferative activity against human A549 cells after 48 hrs by MTT assay. Format: functional, cell-based. As to conditions: A549, 48 h.
Assay [4] concerns U-251. The assay is described as follows: Induction of apoptosis in human U-251 cells assessed as increase in late apoptotic cells at 200 nM measured after 24 hrs by PI/FITC analysis (reference value: 0.311%). Format: functional.
In assay [5] the test system is A549. Put plainly: Induction of apoptosis in human A549 cells assessed as increase in viable cells at 500 nM measured after 24 hrs by PI/FITC analysis (reference value: 98.4%). In kind it is functional.
Assay [6] deals with U-251. Put plainly: Induction of apoptosis in human U-251 cells assessed as increase in necrotic cells at 200 nM measured after 24 hrs by PI/FITC analysis (reference value: 0.301%). In kind it is functional.
Assay [7] has as its system A549. Put plainly: Cell cycle arrest in human A549 cells assessed as G2/M phase at 500 nM measured after 24 hrs by propidium iodide staining based flow cytometry analysis (reference value: 6.08%). In kind it is functional.
Assay [8] concerns A549. The assay is described as follows: Induction of apoptosis in human A549 cells assessed as increase in early apoptotic cells at 500 nM measured after 24 hrs by PI/FITC analysis (reference value: 0.955%). Format: functional.
Assay [9] concerns U-251. Put plainly: Induction of apoptosis in human U-251 cells assessed as increase in early apoptotic cells at 200 nM measured after 24 hrs by PI/FITC analysis (reference value: 1.12%). In kind it is functional.
Assay [10] deals with A549. Put plainly: Cell cycle arrest in human A549 cells assessed as G0/G1 phase at 500 nM incubated for 24 hrs by propidium iodide staining based flow cytometry analysis (reference value: 79.14%). Format: functional.
In assay [11] the test system is U-251. The assay is described as follows: Cell cycle arrest in human U-251 cells assessed as G0/G1 phase at 200 nM measured after 24 hrs by propidium iodide staining based flow cytometry analysis (reference value: 67.34%). Format: functional.
Assay [12] concerns A549. Put plainly: Cell cycle arrest in human A549 cells assessed as S phase at 500 nM measured after 24 hrs by propidium iodide staining based flow cytometry analysis (reference value: 14.78%). In kind it is functional.
The test system of assay [13] is U-251. Put plainly: Induction of apoptosis in human U-251 cells assessed as increase in viable cells at 200 nM measured after 24 hrs by PI/FITC analysis (reference value: 98.3%). Format: functional.
Assay [14] concerns U-251. Put plainly: Cell cycle arrest in human U-251 cells assessed as S phase at 200 nM measured after 24 hrs by propidium iodide staining based flow cytometry analysis (reference value: 18.23%). Format: functional.
The test system of assay [15] is A549. Put plainly: Induction of apoptosis in human A549 cells assessed as increase in late apoptotic cells at 500 nM measured after 24 hrs by PI/FITC analysis (reference value: 0.955%). In kind it is functional.
Assay [16] relates to U-251. Put plainly: Cell cycle arrest in human U-251 cells assessed as G2/M phase at 200 nM measured after 24 hrs by propidium iodide staining based flow cytometry analysis (reference value: 14.43%). Format: functional.
For assay [17], the system named is A549. The assay is described as follows: Induction of apoptosis in human A549 cells assessed as increase in necrotic cells at 500 nM measured after 24 hrs by PI/FITC analysis (reference value: 0.365%). Format: functional.

Turning to `COc1cc(-c2cccc3nc(-c4cccc(O)c4)oc23)cc(OC)c1OC`, the IC50 in the assay with U-251 [1] is 5.5 µM; in the assay with NCI-H460 it was 1.9 µM; in the assay with MCF7, over 25 µM; in assay [2], 5 µM; in the assay on A549 [3], 2 µM. For the same compound, the inhibition in the assay filed under Sus scrofa amounted to 43%.

As to `COc1ccc(C2CNC(=O)C2)cc1OC1CCCC1` (centres undefined) [ROLIPRAM], the Activity is 0.865% in the assay with U-251 [4]; 98.2% in the assay with A549 [5]; 0.745% with U-251 [6]; 4.56% in the assay with A549 [7]; 1.34% with A549 [8]; 1.96% with U-251 [9]. The Activity in the assay on A549 [10] came out at 79.7%; in the assay on U-251 [11] it was 68.42%; in the assay on A549 [12] it was 15.73%; in the assay on U-251 [13], 96.4%; in the assay on U-251 [14], 16.85%; with A549 [15] it was 0.291%. For the same compound, the Activity in the assay with U-251 [16] is on record as 14.73%; with A549 [17], 0.216%. Also, the half-maximal inhibitory concentration (IC50) in the assay with U-251 [1], in the assay on NCI-H460, in the assay on MCF7 and in the assay with A549 [3] was over 100 µM each time.
